Reference: patent US11000033B2, “Ketone or oxime compound, and herbicide” (NISSAN CHEMICAL CORPORATION, priority 2014, dated 2021)

How the values were obtained:
Type in all cases: in vivo
Leptochloa chinensis = experiment: Test Example 3: herbicidal effect by foliage application, Wagner pot (symbol D); details: application herbicide amount 320 g/ha
Method in brief: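 Weeds and rice were sown in alluvial soil under 0.1–0.5 cm of standing water and grown for 14 days in a 25–30 °C greenhouse. An emulsion of the compound, diluted in water to a set dose, was sprayed evenly onto the foliage. Effect was scored against fixed criteria 3 weeks after treatment.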

[1] = tested on: directly sowed rice plant; experiment: Test Example 3: effect on crop by foliage application, Wagner pot (symbol b); details: application herbicide amount 320 g/ha
Method in brief: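 Greenhouse culture at 25–30 °C of seeded rice, Cyperus difformis, Leptochloa chinensis and Echinochloa crus-galli var. crus-galli, in alluvial soil held under 0.1–0.5 cm of water in a Wagner pot.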

Digitaria ciliaris = experiment: Test Example 4: herbicidal effect by soil treatment (symbol F); details: 320 g/ha
Method in brief: (§1)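 Seeds were sown in sterilized diluvial soil, covered with about 1.5 cm of soil, and the soil surface was sprayed with a water-diluted emulsion of the compound at a predetermined rate. Plants grew in a greenhouse at 25° C. to 30° C.; effects were scored visually 3 weeks after application.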

[2] = tested on: Echinochloa crus-galli var. crus-galli; experiment: Test Example 4: herbicidal effect by soil treatment (symbol H); details: 320 g/ha
Method in brief: as §1

Lolium multiflorum Lam. [3] = experiment: Test Example 4: herbicidal effect by soil treatment (symbol K); details: 320 g/ha
Method in brief: as §1

Abutilon theophrasti [4] = experiment: Test Example 4: herbicidal effect by soil treatment (symbol M); details: 320 g/ha
Method in brief: as §1

Amaranthus retroflexus = experiment: Test Example 4: herbicidal effect by soil treatment (symbol N); details: 320 g/ha
Method in brief: as §1

corn [5] = experiment: Test Example 4: effect on crop by soil treatment (symbol c); details: 320 g/ha
Method in brief: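 Plants are raised in a greenhouse (25° C. to 30° C.) from spot-sown seed, which sits under about 1.5 cm of sterilized diluvial soil in a box shared with weed species.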

soybean = experiment: Test Example 4: effect on crop by soil treatment (symbol d); details: 320 g/ha
Method in brief: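 Sterilized diluvial soil, spot sowing, ~1.5 cm soil cover; greenhouse 25–30° C.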

Setaria viridis = experiment: Test Example 5: herbicidal effect by foliage application, plastic box (symbol G); details: 320 g/ha, 3 weeks after application
Method in brief: (§2)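 Herbicide, formulated as an emulsion and diluted in water, is sprayed onto the aerial parts of 14-day seedlings. These were grown at 25° C. to 30° C. in sterilized diluvial soil; effects are graded after 3 weeks.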

Avena fatua = experiment: Test Example 5: herbicidal effect by foliage application, plastic box (symbol I); details: 320 g/ha, 3 weeks after application
Method in brief: as §2

Lolium multiflorum Lam. [6] = experiment: Test Example 5: herbicidal effect by foliage application, plastic box (symbol K); details: 320 g/ha, 3 weeks after application
Method in brief: as §2

Apera spica-venti = experiment: Test Example 5: herbicidal effect by foliage application, plastic box (symbol L); details: 320 g/ha, 3 weeks after application
Method in brief: as §2

Abutilon theophrasti [7] = experiment: Test Example 5: herbicidal effect by foliage application, plastic box (symbol M); details: 320 g/ha, 3 weeks after application
Method in brief: as §2

Chenopodium album = experiment: Test Example 5: herbicidal effect by foliage application, plastic box (symbol O); details: 320 g/ha, 3 weeks after application
Method in brief: as §2

Stellaria media = experiment: Test Example 5: herbicidal effect by foliage application, plastic box (symbol P); details: 320 g/ha, 3 weeks after application
Method in brief: as §2

corn [8] = experiment: Test Example 5: effect on crop by foliage application, plastic box (symbol c); details: 320 g/ha, 3 weeks after application
Method in brief: (§3)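 Seeds were sown in spots in sterilized diluvial soil held in a plastic box 21 cm × 13 cm × 7 cm deep, covered with about 1.5 cm of soil, and grown in a greenhouse at 25° C. to 30° C.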

wheat = experiment: Test Example 5: effect on crop by foliage application, plastic box (symbol e); details: 320 g/ha, 3 weeks after application
Method in brief: as §3

beet = experiment: Test Example 5: effect on crop by foliage application, plastic box (symbol f); details: 320 g/ha, 3 weeks after application
Method in brief: as §3

rapeseed = experiment: Test Example 5: effect on crop by foliage application, plastic box (symbol g); details: 320 g/ha, 3 weeks after application
Method in brief: as §3

| Structure (SMILES) | herbicidal effect on D (Leptochloa chinensis), grade 0-5 (Leptochloa chinensis) | effect on crop b (directly sowed rice plant), grade 0-5 [1] | F: Digitaria ciliaris, herbicidal effect grade (Digitaria ciliaris) | H: Echinochloa crus-galli var. crus-galli, herbicidal effect grade [2] | K: Lolium multiflorum Lam., herbicidal effect grade (Lolium multiflorum Lam. [3]) | M: Abutilon theophrasti, herbicidal effect grade (Abutilon theophrasti [4]) | N: Amaranthus retroflexus, herbicidal effect grade (Amaranthus retroflexus) | c: corn, effect grade on crop (corn [5]) | d: soybean, effect grade on crop (soybean) | G: Setaria viridis, herbicidal effect (criteria 0-5) (Setaria viridis) | I: Avena fatua, herbicidal effect (criteria 0-5) (Avena fatua) | K: Lolium multiflorum Lam., herbicidal effect (criteria 0-5) (Lolium multiflorum Lam. [6]) | L: Apera spica-venti, herbicidal effect (criteria 0-5) (Apera spica-venti) | M: Abutilon theophrasti, herbicidal effect (criteria 0-5) (Abutilon theophrasti [7]) | O: Chenopodium album, herbicidal effect (criteria 0-5) (Chenopodium album) | P: Stellaria media, herbicidal effect (criteria 0-5) (Stellaria media) | c: corn, effect on crop (criteria 0-5) (corn [8]) | e: wheat, effect on crop (criteria 0-5) (wheat) | f: beet, effect on crop (criteria 0-5) (beet) | g: rapeseed, effect on crop (criteria 0-5) (rapeseed) |
| --- | --- | --- | --- | --- | --- | --- | --- | --- | --- | --- | --- | --- | --- | --- | --- | --- | --- | --- | --- | --- |
| CON=C(C)CC1CC(OS(=O)(=O)C2CC2)=C(c2c(C)cc(C)cc2C)C1=O (centres unmarked) [1-143] | 4 (Herbicidal ratio of 70% or higher and lower than 90%) | 5 (Herbicidal ratio of 90% or more (almost completely withered)) | 1 (Herbicidal ratio of 5% or higher and lower than 20%) | 0 (Herbicidal ratio of 5% or lower (almost no effect)) | 4 (Herbicidal ratio of 70% or higher and lower than 90%) | 0 (Herbicidal ratio of 5% or lower (almost no effect)) | 0 (Herbicidal ratio of 5% or lower (almost no effect)) | 0 (Herbicidal ratio of 5% or lower (almost no effect)) | 0 (Herbicidal ratio of 5% or lower (almost no effect)) | 5 (Herbicidal ratio of 90% or more (almost completely withered)) | 5 (Herbicidal ratio of 90% or more (almost completely withered)) | 5 (Herbicidal ratio of 90% or more (almost completely withered)) | 5 (Herbicidal ratio of 90% or more (almost completely withered)) | 1 (Herbicidal ratio of 5% or higher and lower than 20%) | 0 (Herbicidal ratio of 5% or lower (almost no effect)) | 0 (Herbicidal ratio of 5% or lower (almost no effect)) | 3 (Herbicidal ratio of 40% or higher and lower than 70%) | 3 (Herbicidal ratio of 40% or higher and lower than 70%) | 0 (Herbicidal ratio of 5% or lower (almost no effect)) | 4 (Herbicidal ratio of 70% or higher and lower than 90%) |
| CON=C(C)CC1CC(OS(=O)(=O)CC[Si](C)(C)C)=C(c2c(C)cc(C)cc2C)C1=O (centres unmarked) [1-144] | 5 (Herbicidal ratio of 90% or more (almost completely withered)) | 5 (Herbicidal ratio of 90% or more (almost completely withered)) | 5 (Herbicidal ratio of 90% or more (almost completely withered)) | 5 (Herbicidal ratio of 90% or more (almost completely withered)) | 4 (Herbicidal ratio of 70% or higher and lower than 90%) | 0 (Herbicidal ratio of 5% or lower (almost no effect)) | 0 (Herbicidal ratio of 5% or lower (almost no effect)) | 3 (Herbicidal ratio of 40% or higher and lower than 70%) | 0 (Herbicidal ratio of 5% or lower (almost no effect)) | 5 (Herbicidal ratio of 90% or more (almost completely withered)) | 5 (Herbicidal ratio of 90% or more (almost completely withered)) | 5 (Herbicidal ratio of 90% or more (almost completely withered)) | 5 (Herbicidal ratio of 90% or more (almost completely withered)) | 4 (Herbicidal ratio of 70% or higher and lower than 90%) | 0 (Herbicidal ratio of 5% or lower (almost no effect)) | 2 (Herbicidal ratio of 20% or higher and lower than 40%) | 5 (Herbicidal ratio of 90% or more (almost completely withered)) | 4 (Herbicidal ratio of 70% or higher and lower than 90%) | 2 (Herbicidal ratio of 20% or higher and lower than 40%) | 4 (Herbicidal ratio of 70% or higher and lower than 90%) |
| CON=C(C)CC1CC(OC(=O)OCc2ccccc2)=C(c2c(C)cc(C)cc2C)C1=O (centres unmarked) [1-145] | 5 (Herbicidal ratio of 90% or more (almost completely withered)) | 5 (Herbicidal ratio of 90% or more (almost completely withered)) | 5 (Herbicidal ratio of 90% or more (almost completely withered)) | 5 (Herbicidal ratio of 90% or more (almost completely withered)) | 5 (Herbicidal ratio of 90% or more (almost completely withered)) | 4 (Herbicidal ratio of 70% or higher and lower than 90%) | 4 (Herbicidal ratio of 70% or higher and lower than 90%) | 5 (Herbicidal ratio of 90% or more (almost completely withered)) | 0 (Herbicidal ratio of 5% or lower (almost no effect)) | 5 (Herbicidal ratio of 90% or more (almost completely withered)) | 5 (Herbicidal ratio of 90% or more (almost completely withered)) | 5 (Herbicidal ratio of 90% or more (almost completely withered)) | 5 (Herbicidal ratio of 90% or more (almost completely withered)) | 3 (Herbicidal ratio of 40% or higher and lower than 70%) | 1 (Herbicidal ratio of 5% or higher and lower than 20%) | 2 (Herbicidal ratio of 20% or higher and lower than 40%) | 5 (Herbicidal ratio of 90% or more (almost completely withered)) | 5 (Herbicidal ratio of 90% or more (almost completely withered)) | 2 (Herbicidal ratio of 20% or higher and lower than 40%) | 4 (Herbicidal ratio of 70% or higher and lower than 90%) |
| C=CCOC(=O)OC1=C(c2c(C)cc(C)cc2C)C(=O)C(CC(C)=NOC)C1 (centres unmarked) [1-146] | 5 (Herbicidal ratio of 90% or more (almost completely withered)) | 5 (Herbicidal ratio of 90% or more (almost completely withered)) | 5 (Herbicidal ratio of 90% or more (almost completely withered)) | 5 (Herbicidal ratio of 90% or more (almost completely withered)) | 5 (Herbicidal ratio of 90% or more (almost completely withered)) | 5 (Herbicidal ratio of 90% or more (almost completely withered)) | 5 (Herbicidal ratio of 90% or more (almost completely withered)) | 1 (Herbicidal ratio of 5% or higher and lower than 20%) | 0 (Herbicidal ratio of 5% or lower (almost no effect)) | 5 (Herbicidal ratio of 90% or more (almost completely withered)) | 5 (Herbicidal ratio of 90% or more (almost completely withered)) | 5 (Herbicidal ratio of 90% or more (almost completely withered)) | 5 (Herbicidal ratio of 90% or more (almost completely withered)) | 5 (Herbicidal ratio of 90% or more (almost completely withered)) | 2 (Herbicidal ratio of 20% or higher and lower than 40%) | 3 (Herbicidal ratio of 40% or higher and lower than 70%) | 5 (Herbicidal ratio of 90% or more (almost completely withered)) | 5 (Herbicidal ratio of 90% or more (almost completely withered)) | 4 (Herbicidal ratio of 70% or higher and lower than 90%) | 5 (Herbicidal ratio of 90% or more (almost completely withered)) |
